Reference: ChEMBL document CHEMBL1142442, “Synthesis of chimeric tetrapeptide-linked cholic acid derivatives: impending synergistic agents” (Bioorg Med Chem Lett, 2008)
pIC50: −log10 of the molar value. Values after ≈ are worked out from the molar mass of the structure shown. Where a SMILES comes first, the peptide text is derived from it. The star is where a group is joined. Boc = CC(C)(C)OC(=O)*; OBn = c1ccc(CO*)cc1

Experiments:
[1] = test system: Candida albicans; assay: Antifungal activity at Candida albicans; type: functional
[2] = test system: Cryptococcus neoformans; assay: Antifungal activity at Cryptococcus neoformans; type: functional
[3] = test system: Benjaminiella poitrasii; assay: Antifungal activity at Benjaminiella poitrasii; type: functional
[4] = test system: Yarrowia lipolytica; assay: Antifungal activity at Yarrowia lipolytica; type: functional
[5] = test system: Fusarium oxysporum; assay: Antifungal activity at Fusarium oxysporum; type: functional
[6] = test system: Escherichia coli; assay: Antibacterial activity at Escherichia coli; type: functional
[7] = test system: Staphylococcus aureus; assay: Antibacterial activity at Staphylococcus aureus; type: functional
[8] = test system: Candida albicans; assay: Antifungal activity at Candida albicans assessed as concentration required to lower the MIC of fluconazole from 32 to 1 ug/mL after 48 hrs; type: functional
[9] = test system: Escherichia coli; assay: Antibacterial activity at Escherichia coli assessed as concentration required to lower the MIC of erythromycin from 64 to 1 ug/mL after 24 hrs; type: functional
[10] = test system: MCF7; assay: Antiproliferative activity against human MCF7 cells by MTT assay; type: functional, cell-based
[11] = test system: HEK293; assay: Antiproliferative activity against HEK293 cells by MTT assay; type: cell-based; conditions: Homo sapiens
[12] = test system: MCF7; assay: Antiproliferative activity against human MCF7 cells at upto 80 uM by MTT assay; type: functional, cell-based
[13] = test system: HEK293; assay: Antiproliferative activity against HEK293 cells at upto 80 uM by MTT assay; type: cell-based; conditions: human

Row | SMILES | MIC [1] | MIC [2] | MIC [3] | MIC [4] | MIC [5] | MIC [6] | MIC [7] | MIC [8] | MIC [9] | pIC50 [10] | pIC50 [11] | Activity [12] | Activity [13]
1 | CC(=O)OCCC[C@@H](C)[C@H]1CC[C@H]2[C@@H]3[C@H](OC(C)=O)C[C@@H]4C[C@@H](NC(=O)CCNC(=O)CCNC(=O)CCNC(=O)CCNC(=O)OC(C)(C)C)CC[C@]4(C)[C@H]3C[C@H](O)[C@]12C | 32 µg/mL (≈ 37.1 µM) | > 128 µg/mL | 64 µg/mL (≈ 74.2 µM) | 96 µg/mL (≈ 111 µM) | > 128 µg/mL | > 128 µg/mL | 32 µg/mL (≈ 37.1 µM) | 8 µg/mL | 10 µg/mL | 3.82 | 4.10 | Non-toxic | Non-toxic
2 | C[C@@H]1[C@H](O)[C@@H](C)/C=C/C=C/C=C/C=C/C=C/C=C/C=C/[C@H](O[C@@H]2O[C@H](C)[C@@H](O)[C@H](N)[C@@H]2O)C[C@@H]2O[C@](O)(C[C@@H](O)C[C@@H](O)[C@H](O)CC[C@@H](O)C[C@@H](O)CC(=O)O[C@H]1C)C[C@H](O)[C@H]2C(=O)O [AMPHOTERICIN B] | 2 µg/mL (≈ 2.16 µM) | 16 µg/mL (≈ 17.3 µM) | 16 µg/mL (≈ 17.3 µM) | 16 µg/mL (≈ 17.3 µM) | 16 µg/mL (≈ 17.3 µM) | – | – | – | – | – | – | – | –
3 | COC(=O)CC[C@@H](C)[C@H]1CC[C@H]2[C@@H]3[C@H](O)C[C@@H]4C[C@@H](NC(=O)CCNC(=O)CCNC(=O)CCNC(=O)CCNC(=O)OC(C)(C)C)CC[C@]4(C)[C@H]3C[C@H](O)[C@]12C | 32 µg/mL (≈ 39.7 µM) | > 128 µg/mL | 16 µg/mL (≈ 19.8 µM) | 96 µg/mL (≈ 119 µM) | 64 µg/mL (≈ 79.4 µM) | > 128 µg/mL | > 128 µg/mL | 6 µg/mL | 16 µg/mL | 4.00 | < 3.00 | Non-toxic | Non-toxic
4 | CC(CCC(=O)O)C1CCC2C3C(O)CC4CC(NC(=O)CCNC(=O)CCNC(=O)CCNC(=O)CCNC(=O)OC(C)(C)C)CCC4(C)C3CC(O)C12C (stereo not drawn) | 32 µg/mL (≈ 40.4 µM) | > 128 µg/mL | 48 µg/mL (≈ 60.6 µM) | > 128 µg/mL | 64 µg/mL (≈ 80.8 µM) | > 128 µg/mL | > 128 µg/mL | 12 µg/mL | 16 µg/mL | < 3.00 | < 3.00 | Non-toxic | Non-toxic
5 | CN(C)[C@@H]1C(O)=C(C(N)=O)C(=O)[C@@]2(O)C(O)=C3C(=O)c4c(O)cccc4[C@@](C)(O)[C@H]3C[C@@H]12 [TETRACYCLINE] | – | – | – | – | – | 8 µg/mL (≈ 18 µM) | 16 µg/mL (≈ 36 µM) | – | – | – | – | – | –
6 | CC(=O)OCCC[C@@H](C)[C@H]1CC[C@H]2[C@@H]3[C@H](OC(C)=O)C[C@@H]4C[C@@H](NC(=O)CNC(=O)CNC(=O)CNC(=O)CN)CC[C@]4(C)[C@H]3C[C@H](O)[C@]12C | 64 µg/mL (≈ 90.7 µM) | > 128 µg/mL | 16 µg/mL (≈ 22.7 µM) | > 128 µg/mL | 32 µg/mL (≈ 45.3 µM) | > 128 µg/mL | 64 µg/mL (≈ 90.7 µM) | 6 µg/mL | 8 µg/mL | 3.82 | 3.10 | Non-toxic | Non-toxic
7 | CC[C@H]1OC(=O)[C@H](C)[C@@H](O[C@H]2C[C@@](C)(OC)[C@@H](O)[C@H](C)O2)[C@H](C)[C@@H](O[C@@H]2O[C@H](C)C[C@H](N(C)C)[C@H]2O)[C@](C)(O)C[C@@H](C)C(=O)[C@H](C)[C@@H](O)[C@]1(C)O [ERYTHROMYCIN] | – | – | – | – | – | 64 µg/mL (≈ 87.2 µM) | 32 µg/mL (≈ 43.6 µM) | – | – | – | – | – | –
8 | OC(Cn1cncn1)(Cn1cncn1)c1ccc(F)cc1F [FLUCONAZOLE] | 32 µg/mL (≈ 104 µM) | 32 µg/mL (≈ 104 µM) | 32 µg/mL (≈ 104 µM) | 64 µg/mL (≈ 209 µM) | 8 µg/mL (≈ 26.1 µM) | – | – | – | – | – | – | – | –
9 | CC(C)(C)OC(=O)NCC(=O)NCC(=O)NCC(=O)NCC(=O)O (Boc-GGGG-OH) | > 128 µg/mL | – | – | – | – | 64 µg/mL (≈ 185 µM) | – | 64 µg/mL | 128 µg/mL | – | – | – | –
10 | C[C@H](CCCO)[C@H]1CC[C@H]2[C@@H]3[C@H](O)C[C@@H]4C[C@@H](NC(=O)CCNC(=O)CCNC(=O)CCNC(=O)CCN)CC[C@]4(C)[C@H]3C[C@H](O)[C@]12C | 64 µg/mL (≈ 94.4 µM) | > 128 µg/mL | 64 µg/mL (≈ 94.4 µM) | > 128 µg/mL | > 128 µg/mL | 32 µg/mL (≈ 47.2 µM) | > 128 µg/mL | 6 µg/mL | 8 µg/mL | < 3.00 | 3.10 | Non-toxic | Non-toxic
11 | NCC(=O)NCC(=O)NCC(=O)NCC(=O)O (H-GGGG-OH) | 128 µg/mL (≈ 520 µM) | – | – | – | – | > 128 µg/mL | – | > 128 µg/mL | 64 µg/mL | – | – | – | –
12 | COC(=O)CC[C@@H](C)[C@H]1CC[C@H]2[C@@H]3[C@H](O)C[C@@H]4C[C@@H](NC(=O)CNC(=O)CNC(=O)CNC(=O)CNC(=O)OC(C)(C)C)CC[C@]4(C)[C@H]3C[C@H](O)[C@]12C | 16 µg/mL (≈ 21.3 µM) | > 128 µg/mL | 64 µg/mL (≈ 85.3 µM) | > 128 µg/mL | 64 µg/mL (≈ 85.3 µM) | 96 µg/mL (≈ 128 µM) | 32 µg/mL (≈ 42.7 µM) | 8 µg/mL | 24 µg/mL | 3.52 | 3.22 | Non-toxic | Non-toxic
13 | COC(=O)CC[C@@H](C)[C@H]1CC[C@H]2[C@@H]3[C@H](O)C[C@@H]4C[C@@H](NC(=O)CNC(=O)CNC(=O)CNC(=O)CN)CC[C@]4(C)[C@H]3C[C@H](O)[C@]12C | 32 µg/mL (≈ 49.2 µM) | > 128 µg/mL | 64 µg/mL (≈ 98.5 µM) | > 128 µg/mL | 128 µg/mL (≈ 197 µM) | > 128 µg/mL | 96 µg/mL (≈ 148 µM) | 6 µg/mL | 12 µg/mL | 3.30 | 4.10 | Non-toxic | Non-toxic
14 | NCCC(=O)NCCC(=O)NCCC(=O)NCCC(=O)O | > 128 µg/mL | – | – | – | – | 128 µg/mL (≈ 423 µM) | – | 128 µg/mL | > 128 µg/mL | – | – | – | –
15 | CC(C)(C)OC(=O)NCCC(=O)NCCC(=O)NCCC(=O)NCCC(=O)O | > 128 µg/mL | – | – | – | – | 64 µg/mL (≈ 159 µM) | – | 64 µg/mL | > 128 µg/mL | – | – | – | –
16 | CC(C)(C)OC(=O)NCCC(=O)NCCC(=O)NCCC(=O)NCCC(=O)OCc1ccccc1 | > 128 µg/mL | – | – | – | – | 128 µg/mL (≈ 260 µM) | – | 128 µg/mL | 64 µg/mL | – | – | – | –
17 | COC(=O)CC[C@@H](C)[C@H]1CC[C@H]2[C@@H]3[C@H](O)C[C@@H]4C[C@@H](NC(=O)CCNC(=O)CCNC(=O)CCNC(=O)CCN)CC[C@]4(C)[C@H]3C[C@H](O)[C@]12C | 128 µg/mL (≈ 181 µM) | > 128 µg/mL | 24 µg/mL (≈ 34 µM) | > 128 µg/mL | 32 µg/mL (≈ 45.3 µM) | 96 µg/mL (≈ 136 µM) | 64 µg/mL (≈ 90.7 µM) | 3 µg/mL | 8 µg/mL | 3.22 | 3.15 | Non-toxic | Non-toxic
18 | C[C@H](CCC(=O)O)[C@H]1CC[C@H]2[C@@H]3[C@H](O)C[C@@H]4C[C@H](O)CC[C@]4(C)[C@H]3C[C@H](O)[C@]12C [CHOLIC ACID] | > 128 µg/mL | > 128 µg/mL | 128 µg/mL (≈ 313 µM) | > 128 µg/mL | > 128 µg/mL | > 128 µg/mL | > 128 µg/mL | 64 µg/mL | 64 µg/mL | 4.30 | < 3.00 | – | –
19 | CC(C)(C)OC(=O)NCC(=O)NCC(=O)NCC(=O)NCC(=O)OCc1ccccc1 (Boc-GGGG-OBn) | > 128 µg/mL | – | – | – | – | 128 µg/mL (≈ 293 µM) | – | 128 µg/mL | 128 µg/mL | – | – | – | –
